From US20240287080A1 (IDEAYA Biosciences Inc., priority 2021, published 2024)

Molecular target: T1, Pol theta (1-899) (Homo sapiens, UniProt O75417)
T1 construct: Pol theta (1-899) (5 nM) in assay buffer
Assay: Pol theta ATPase activity, NADH oxidation-coupled enzymatic assay (ATPase NADH coupling: Standard Screening: hPolQ)
Type: biochemical
Settings: Pol theta (1-899) 5 nM
Summary of the method: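 NADH-coupled ATPase readout: 5 nM Pol theta (1-899) preincubated 15 min with 10-point compound series in Tris pH 7.80, KCl, MgCl2, DTT, BSA, Tween, glycerol, then 100 μM ATP, 300 nM 50-mer poly-dT ssDNA, NADH, PEP, LDH and PK added (stock levels). A340 followed 60 min; slopes fit four-parameter for IC50.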

[1] = Table 5, values given as bound, ATP, dT50 ssDNA
[2] = NADH oxidation-coupled ATPase assay, compounds of Table 3

T1 sequence (O75417 1-899): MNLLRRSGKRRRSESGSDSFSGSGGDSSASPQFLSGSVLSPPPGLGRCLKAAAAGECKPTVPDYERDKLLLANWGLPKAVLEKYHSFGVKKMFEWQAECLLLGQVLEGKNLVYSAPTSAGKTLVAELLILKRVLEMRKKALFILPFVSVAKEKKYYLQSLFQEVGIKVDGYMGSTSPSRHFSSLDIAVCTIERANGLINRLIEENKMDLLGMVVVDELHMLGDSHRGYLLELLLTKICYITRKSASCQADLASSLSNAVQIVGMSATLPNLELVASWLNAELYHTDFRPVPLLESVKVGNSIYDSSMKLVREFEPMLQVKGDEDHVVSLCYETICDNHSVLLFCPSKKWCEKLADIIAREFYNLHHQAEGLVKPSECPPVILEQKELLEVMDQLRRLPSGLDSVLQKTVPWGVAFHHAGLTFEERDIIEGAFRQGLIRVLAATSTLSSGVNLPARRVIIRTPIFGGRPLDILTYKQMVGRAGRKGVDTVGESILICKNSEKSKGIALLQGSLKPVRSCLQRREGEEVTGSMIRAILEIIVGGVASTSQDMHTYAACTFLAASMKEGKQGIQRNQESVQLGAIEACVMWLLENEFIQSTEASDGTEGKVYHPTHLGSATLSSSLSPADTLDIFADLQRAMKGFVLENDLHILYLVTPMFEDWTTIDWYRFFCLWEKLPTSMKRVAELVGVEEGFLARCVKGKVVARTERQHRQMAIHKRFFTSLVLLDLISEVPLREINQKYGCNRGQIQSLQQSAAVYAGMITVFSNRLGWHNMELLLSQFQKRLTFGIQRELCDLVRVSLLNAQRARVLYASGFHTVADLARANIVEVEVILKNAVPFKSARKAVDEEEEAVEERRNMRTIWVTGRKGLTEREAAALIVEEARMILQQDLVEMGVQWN

COc1cnc(Cl)cc1-c1cc(OC2CC2)ncc1C(=O)Nc1nnc(O[C@@H]2CCOC2)s1 [Example 193, (R)-2′-chloro-6-cyclopropoxy-5′-methoxy-N-(5-((tetrahydrofuran-3-yl)oxy)-1,3,4-thiadiazol-2-yl)-(4,4′-bipyridine)-3-carboxamide]
IC50 (Table 5, ATP, dT50 ssDNA): 500 to 1000 nM

COc1cnc(Br)cc1-c1cc(C)ncc1C(=O)Nc1nnc(O[C@H]2CC[C@H](O)CC2)s1 [Example 194, 2′-bromo-N-(5-(((1r,4r)-4-hydroxycyclohexyl)oxy)-1,3,4-thiadiazol-2-yl)-5′-methoxy-6-methyl-(4,4′-bipyridine)-3-carboxamide]
IC50 (Table 5, ATP, dT50 ssDNA): ≤ 200 nM

Cc1cc(-c2cc(Br)ncc2OC(F)F)c(C(=O)Nc2nnc(O[C@@H]3CCOC3)s2)cn1 [Example 195, (R)-2′-bromo-5′-(difluoromethoxy)-6-methyl-N-(5-((tetrahydrofuran-3-yl)oxy)-1,3,4-thiadiazol-2-yl)-(4,4′-bipyridine)-3-carboxamide]
IC50 (Table 5, ATP, dT50 ssDNA): ≤ 200 nM

COc1nnc(NC(=O)c2cnc(OC3CC3)cc2-c2cc(Cl)ncc2OC)s1 [Example 196, 2′-chloro-6-cyclopropoxy-5′-methoxy-N-(5-methoxy-1,3,4-thiadiazol-2-yl)-(4,4′-bipyridine)-3-carboxamide]
IC50 (Table 5, ATP, dT50 ssDNA): 500 to 1000 nM

COc1cnc(Br)c(F)c1-c1cc(C)ncc1C(=O)Nc1nnc(O[C@@H]2CCOC2)s1 [Example 201, 2′-bromo-3′-fluoro-5′-methoxy-6-methyl-N-(5-(((R)-tetrahydrofuran-3-yl)oxy)-1,3,4-thiadiazol-2-yl)-(4,4′-bipyridine)-3-carboxamide]
IC50 (Table 5, ATP, dT50 ssDNA): ≤ 200 nM

COc1cnc(C)c(F)c1-c1cc(C)ncc1C(=O)Nc1nnc(O[C@H]2CC[C@H](O)CC2)s1 [Example 202, 3′-fluoro-N-(5-(((1r,4r)-4-hydroxycyclohexyl)oxy)-1,3,4-thiadiazol-2-yl)-5′-methoxy-2′,6-dimethyl-(4,4′-bipyridine)-3-carboxamide]
IC50 (Table 5, ATP, dT50 ssDNA): ≤ 200 nM

Cc1cc(-c2cc(Cl)ncc2OC(F)F)c(C(=O)Nc2nnc(O[C@H]3CC[C@H](O)CC3)s2)cn1 [Example 203, 2′-chloro-5′-(difluoromethoxy)-N-(5-(((1r,4r)-4-hydroxycyclohexyl)oxy)-1,3,4-thiadiazol-2-yl)-6-methyl-(4,4′-bipyridine)-3-carboxamide]
IC50 (Table 5, ATP, dT50 ssDNA): ≤ 200 nM

COc1cnc(C)c(F)c1-c1cc(C)ncc1C(=O)Nc1nnc(OC2COC2)s1 [Example 204]
IC50 (Table 5, ATP, dT50 ssDNA): ≤ 200 nM

Cc1cc(-c2cc(Br)ncc2OC(F)F)c(C(=O)Nc2nnc(O[C@H]3CC[C@H](O)CC3)s2)cn1 [Example 205, 2′-bromo-5′-(difluoromethoxy)-N-(5-(((1r,4r)-4-hydroxycyclohexyl)oxy)-1,3,4-thiadiazol-2-yl)-6-methyl-(4,4′-bipyridine)-3-carboxamide]
IC50 (Table 5, ATP, dT50 ssDNA): ≤ 200 nM

COc1cnc(C)c(F)c1-c1cc(C)ncc1C(=O)Nc1nnc(O[C@@H]2CCOC2)s1 [Example 206]
IC50 (Table 5, ATP, dT50 ssDNA): ≤ 200 nM

COc1cnc(Cl)c(F)c1-c1cc(C)ncc1C(=O)Nc1nnc(O[C@H]2CC[C@H](O)CC2)s1 [Example 211, 2′-chloro-3′-fluoro-N-(5-(((1r,4r)-4-hydroxycyclohexyl)oxy)-1,3,4-thiadiazol-2-yl)-5′-methoxy-6-methyl-(4,4′-bipyridine)-3-carboxamide]
IC50 (Table 5, ATP, dT50 ssDNA): ≤ 200 nM

COc1cnc(Cl)cc1-c1cc(COC2CC2)ncc1C(=O)Nc1nnc(O[C@@H]2CCOC2)s1 [Example 214, (R)-2′-chloro-6-(cyclopropoxymethyl)-5′-methoxy-N-(5-((tetrahydrofuran-3-yl)oxy)-1,3,4-thiadiazol-2-yl)-(4,4′-bipyridine)-3-carboxamide]
IC50 (Table 5, ATP, dT50 ssDNA): ≤ 200 nM

COc1nnc(NC(=O)c2cnc(COC3CC3)cc2-c2cc(Cl)ncc2OC)s1 [Example 215, 2′-chloro-6-(cyclopropoxymethyl)-5′-methoxy-N-(5-methoxy-1,3,4-thiadiazol-2-yl)-(4,4′-bipyridine)-3-carboxamide]
IC50 (Table 5, ATP, dT50 ssDNA): ≤ 200 nM

COc1nnc(NC(=O)c2cnc(C)cc2-c2cc(Cl)c([S+](C)[O-])cc2OC)s1 (centres unmarked) [Example 231, 4-(5-chloro-2-methoxy-4-(methylsulfinyl)phenyl)-N-(5-methoxy-1,3,4-thiadiazol-2-yl)-6-methylnicotinamide]
IC50 (Table 5, ATP, dT50 ssDNA): ≤ 200 nM

COc1nnc(NC(=O)c2cn(-c3cc(Cl)ncc3OC)nn2)s1 [Example 234, 1-(2-chloro-5-methoxypyridin-4-yl)-N-(5-methoxy-1,3,4-thiadiazol-2-yl)-1H-1,2,3-triazole-4-carboxamide]
IC50 [1]: > 10000 nM

COc1nnc(NC(=O)c2ccn(-c3cc(Cl)ncc3OC)n2)s1 [Example 235, 1-(2-chloro-5-methoxypyridin-4-yl)-N-(5-methoxy-1,3,4-thiadiazol-2-yl)-1H-pyrazole-3-carboxamide]
IC50 [1]: > 10000 nM

COc1cnc(Cl)cc1-c1cc(C)ncc1C(=O)Nc1nnc(O[C@H]2CO[C@H]3[C@@H]2OC[C@H]3O)s1 [Example 237, 2′-chloro-N-(5-(((3S,3aR,6R,6aR)-6-hydroxyhexahydrofuro[3,2-b]furan-3-yl)oxy)-1,3,4-thiadiazol-2-yl)-5′-methoxy-6-methyl-[4,4′-bipyridine]-3-carboxamide]
IC50 [2]: ≤ 200 nM

COc1cnc(Cl)cc1-c1cc(C)ncc1C(=O)Nc1nnc(O[C@H]2CO[C@H]3[C@@H]2OC[C@H]3O[N+](=O)[O-])s1 [Example 238, (3R,3aS,6S,6aR)-6-((5-(2′-chloro-5′-methoxy-6-methyl-[4,4′-bipyridine]-3-carboxamido)-1,3,4-thiadiazol-2-yl)oxy)hexahydrofuro[3,2-b]furan-3-yl nitrate]
IC50 [2]: ≤ 200 nM

COc1cnc(C)cc1-c1cc(C)ncc1C(=O)Nc1nnc(OC2CC=CC2)s1 [Example 240, N-(5-(cyclopent-3-en-1-yloxy)-1,3,4-thiadiazol-2-yl)-5′-methoxy-2′,6-dimethyl-[4,4′-bipyridine]-3-carboxamide]
IC50 [2]: ≤ 200 nM

COc1cnc(C)cc1-c1cc(C)ncc1C(=O)Nc1nnc(OC(C)COCC(F)(F)F)s1 (centres unmarked) [Example 241, 5′-methoxy-2′,6-dimethyl-N-(5-((1-(2,2,2-trifluoroethoxy)propan-2-yl)oxy)-1,3,4-thiadiazol-2-yl)-[4,4′-bipyridine]-3-carboxamide]
IC50 [2]: ≤ 200 nM

COc1cc(C(=O)Nc2nnc(OC)s2)c(-c2cc(Cl)ncc2OC)cn1 [Example 242, 2′-chloro-5′,6-dimethoxy-N-(5-methoxy-1,3,4-thiadiazol-2-yl)-[3,4′-bipyridine]-4-carboxamide]
IC50 [2]: ≤ 200 nM

COc1cnc(C)c(F)c1-c1cc(C)ncc1C(=O)Nc1nnc(O[C@H]2CO[C@H]3OCC[C@H]32)s1 [Example 243, 3′-fluoro-N-(5-(((3R,3aS,6aR)-hexahydrofuro[2,3-b]furan-3-yl)oxy)-1,3,4-thiadiazol-2-yl)-5′-methoxy-2′,6-dimethyl-[4,4′-bipyridine]-3-carboxamide]
IC50 [2]: ≤ 200 nM

COc1cnc(Cl)c(F)c1-c1cc(C)ncc1C(=O)Nc1nnc(O[C@H]2CC[C@@H](CO)CC2)s1 [Example 245, 2′-chloro-3′-fluoro-N-(5-(((1s,4s)-4-(hydroxymethyl)cyclohexyl)oxy)-1,3,4-thiadiazol-2-yl)-5′-methoxy-6-methyl-[4,4′-bipyridine]-3-carboxamide]
IC50 [2]: ≤ 200 nM

COc1cnc(C)cc1-c1cc(C)ncc1C(=O)Nc1nnc(O[C@H]2COC[C@@H]2OC(C)C)s1 [Example 246]
IC50 [2]: ≤ 200 nM

COc1cnc(Cl)cc1-c1cc(C)ncc1C(=O)Nc1nnc(OC2CCCN(C3CCOC3)C2)s1 (centres unmarked) [Example 247, 2′-chloro-5′-methoxy-6-methyl-N-(5-((1-(tetrahydrofuran-3-yl)piperidin-3-yl)oxy)-1,3,4-thiadiazol-2-yl)-[4,4′-bipyridine]-3-carboxamide]
IC50 [2]: ≤ 200 nM

COc1nnc(NC(=O)c2ccc(C#N)cc2-c2cc(Cl)ncc2OC)s1 [Example 248, 2-(2-chloro-5-methoxypyridin-4-yl)-4-cyano-N-(5-methoxy-1,3,4-thiadiazol-2-yl)benzamide]
IC50 [2]: ≤ 200 nM

COc1cnc(C)cc1-c1cc(C)ncc1C(=O)Nc1nnc(OC2COCC2NCC2CC2)s1 (centres unmarked) [Example 249, N-(5-((4-((cyclopropylmethyl)amino)tetrahydrofuran-3-yl)oxy)-1,3,4-thiadiazol-2-yl)-5′-methoxy-2′,6-dimethyl-[4,4′-bipyridine]-3-carboxamide]
IC50 [2]: ≤ 200 nM

COc1cnc(Cl)cc1-c1cc(C)ncc1C(=O)Nc1nnc(OC2CCCN(C3COC3)C2)s1 (centres unmarked) [Example 250, 2′-chloro-5′-methoxy-6-methyl-N-(5-((1-(oxetan-3-yl)piperidin-3-yl)oxy)-1,3,4-thiadiazol-2-yl)-[4,4′-bipyridine]-3-carboxamide]
IC50 [2]: ≤ 200 nM

COc1cnc(C)c(F)c1-c1cc(C)ncc1C(=O)Nc1nnc(O[C@H]2CC[C@@H](CO)CC2)s1 [Example 257, 3′-fluoro-N-(5-(((1s,4s)-4-(hydroxymethyl)cyclohexyl)oxy)-1,3,4-thiadiazol-2-yl)-5′-methoxy-2′,6-dimethyl-[4,4′-bipyridine]-3-carboxamide]
IC50 [2]: ≤ 200 nM

COc1cnc(C)c(F)c1-c1cc(C)ncc1C(=O)Nc1nnc(OCCN(C)CC(F)(F)F)s1 [Example 258, 3′-fluoro-5′-methoxy-2′,6-dimethyl-N-(5-(2-(methyl(2,2,2-trifluoroethyl)amino)ethoxy)-1,3,4-thiadiazol-2-yl)-[4,4′-bipyridine]-3-carboxamide]
IC50 [2]: ≤ 200 nM

COc1nnc(NC(=O)c2ccncc2-c2cc(Cl)ncc2OC)s1 [Example 259, 2′-chloro-5′-methoxy-N-(5-methoxy-1,3,4-thiadiazol-2-yl)-[3,4′-bipyridine]-4-carboxamide]
IC50 [2]: ≤ 200 nM

COc1cnc(Cl)cc1-c1cc(C)ncc1C(=O)Nc1nnc(O[C@H]2CO[C@H]3OCC[C@H]32)s1 [Example 262, 2′-chloro-N-(5-(((3R,3aS,6aR)-hexahydrofuro[2,3-b]furan-3-yl)oxy)-1,3,4-thiadiazol-2-yl)-5′-methoxy-6-methyl-[4,4′-bipyridine]-3-carboxamide]
IC50 [2]: ≤ 200 nM
